We go through four molecules from paper PMC4393269, “Carvacrol Codrugs: A New Approach in the Antimicrobial Plan” (PLoS ONE, 2015).

Common to all, as to format: cell-based
Data set [1] has as its system human red blood cells (h-RBC). Put plainly: Hemolytic activity. The conditions noted are these: 4% h-RBC, 1 h at 37°C; for hemolytic activity, maximum at the tested concentrations: 25 to 0.05 mg/mL. The method, then:
Experimental protocols to study hemolysis on human red cells were approved by Ethics Committee of the University “G. d’Annunzio” Chieti-Pescara. Human red cells were from two volunteers, who signed the informed consent for this study.
Hemolytic activity of carvacrol codrugs 1–10 was tested against human red blood cells (h-RBC). Fresh human blood, collected with EDTA, was centrifuged at 3000 rpm for 5 min then washed three times with PBS pH 7.3. Red blood cells were diluted to 4% in PBS and incubated with different codrugs concentrations ranging from 25 to 0.05 mg/mL. After 1 h of incubation at 37°C, the suspensions were sedimented by centrifugation and the release of hemoglobin was determined by absorbance measurement at 405 nm and compared with a 0% hemolysis control (PBS) and a 100% hemolysis control (PBS with 1% v/v Triton X-100). The percentage of hemolysis was calculated using the following equation: Hemolysis (%) = [(OD405sample - OD4050% lysis control)/(OD405100% lysis control - OD4050% lysis contro)] X 100

Another data set relates to C. albicans ATCC 10231. Put plainly: Broth microdilution MIC/MFC. The conditions noted are these: Candida albicans, ATCC10231; for MIC: C. albicans ATCC 10231, 24–48 h at 37°C, read-out: MIC; for MFC: C. albicans ATCC 10231, read-out: MFC. The method, then:
(§1) Two Gram-positive (S. aureus ATCC 29213 and S. epidermidis ATCC 35984) and two Gram-negative (E. coli ATCC 8739 and P. aeruginosa ATCC 9027) strains, and one fungal strain (C. albicans ATCC 10231) were used for the detection of antibacterial activity of carvacrol, NAC, Ac-Cys(Allyl)-OH, and carvacrol codrugs 1–10. All tested compounds were dissolved in 20% DMSO to prepare the stock solution (100 mg/mL). The final concentration of DMSO in each well appeared to be not toxic for all studied microorganisms, as confirmed by the solvent control test included in the study.
The MIC detection of C. albicans ATCC 10231 was performed using the broth microdilution method according to EUCAST guidelines in RPMI 1640 plus 2% glucose with a final inoculum of 1–5 x 10^5 CFU/mL for 24–48 h at 37°C. The Minimum Fungicidal Concentration (MFC) was determined as the lowest concentration of substances at which no fungal growth occurred on Sabouraud agar plates.
(§2) Data were obtained from at least three independent experiments performed in duplicate. The susceptibility of the bacterial strains against ciprofloxacin was used as an internal standard during MIC determinations.
In general terms: In broth dilution the organism is exposed to a series of concentrations in liquid medium.

Another data set relates to E. coli ATCC 8739. Description: Broth microdilution MIC/MBC on planktonic cells. The conditions noted are these: Escherichia coli, ATCC8739; for MIC: E. coli ATCC 8739, 24 h at 37°C, read-out: MIC; for MBC: E. coli ATCC 8739, read-out: MBC. The method, then: as §1
(§3) The effects of carvacrol codrugs 1–10 and reference compounds on planktonic cells were evaluated by Minimum Inhibitory Concentration (MIC) and Minimum Bactericidal Concentration (MBC) determination using the broth microdilution method according to EUCAST guidelines. Bacterial suspensions, grown in Mueller–Hinton Broth (MHB) at logarithmic phase, were incubated on microtiter plates at a concentration of 5 x 10^5 CFU/mL, with several dilutions (0.07–40 mg/mL) for 24 h at 37°C. The MIC was defined as the lowest concentration of substances giving a complete inhibition of visible growth in comparison with a control well, and the MBC was determined as the lowest concentration at which no bacterial growth occurred on Mueller–Hinton Agar plates.
as §2

Data set [2] has as its system S. epidermidis ATCC 35984. Put plainly: Broth microdilution MIC/MBC on planktonic cells. The following applies: Staphylococcus epidermidis, ATCC35984; for MIC: S. epidermidis ATCC 35984, 24 h at 37°C, read-out: MIC; for MBC: S. epidermidis ATCC 35984, read-out: MBC. The method, then: as §1, §3, §2
In another data set the test system is S. aureus ATCC 29213. Put plainly: Broth microdilution MIC/MBC on planktonic cells. The conditions noted are these: Staphylococcus aureus, ATCC29213; for MIC: S. aureus ATCC 29213, 24 h at 37°C, read-out: MIC; for MBC: S. aureus ATCC 29213, read-out: MBC. On the procedure: as §1, §3, §2
The next data set deals with P. aeruginosa ATCC 9027. Description: Broth microdilution MIC/MBC on planktonic cells. The following applies: Pseudomonas aeruginosa, ATCC9027; for MIC: P. aeruginosa ATCC 9027, 24 h at 37°C, read-out: MIC; for MBC: P. aeruginosa ATCC 9027, read-out: MBC. The method, then:
as §1, §3, §2

Values after ≈ are worked out from the molar mass of the structure shown. Bounds are passed on as bounds.

In general, MIC refers to the smallest concentration in the dilution series that meets the test's criterion for growth inhibition. Broadly, the MFC is the lowest tested concentration that kills the fungus rather than only halting it. Broadly, the MBC is the lowest tested concentration that kills the bacteria rather than only halting them.

As to `CSCC[C@H](NC(C)=O)C(=O)Oc1cc(C(C)C)ccc1C` [codrug 5, N-Ac-Met-CAR], in data set [1], the “concentration at which hemolytic activity is over 50%” value was “over 20 mg/mL”. The minimal inhibitory concentration (MIC) in the data set on C. albicans ATCC 10231 turned out to be 5000 µg/mL (≈ 15.5 mM); with E. coli ATCC 8739, 10000 µg/mL (≈ 30.9 mM); in data set [2] it was 10000 µg/mL (≈ 30.9 mM); in the data set with S. aureus ATCC 29213 it was 10000 µg/mL (≈ 30.9 mM); in the data set with P. aeruginosa ATCC 9027 it was 5000 µg/mL (≈ 15.5 mM). Moreover, in the data set on C. albicans ATCC 10231, the MFC was found to be 5000 µg/mL (≈ 15.5 mM). The MBC (in the data set with E. coli ATCC 8739; in data set [2]; with S. aureus ATCC 29213; in the data set with P. aeruginosa ATCC 9027) was 10000 µg/mL (≈ 30.9 mM) throughout.

With `C[Se]CC[C@H](NC(C)=O)C(=O)Oc1cc(C(C)C)ccc1C` [codrug 6, N-Ac-Met(Se)-CAR], the “concentration at which hemolytic activity is over 50%” value in data set [1] was “over 20 mg/mL”. Also, the minimum inhibitory concentration (MIC) in the data set with C. albicans ATCC 10231 amounted to 150 µg/mL (≈ 0.405 mM); in the data set with E. coli ATCC 8739 it was 5000 µg/mL (≈ 13.5 mM); in data set [2], 5000 µg/mL (≈ 13.5 mM); in the data set with S. aureus ATCC 29213 it was 10000 µg/mL (≈ 27 mM); with P. aeruginosa ATCC 9027, 5000 µg/mL (≈ 13.5 mM). Moreover, the MFC in the data set on C. albicans ATCC 10231 was determined as 600 µg/mL (≈ 1.62 mM). The MBC (with E. coli ATCC 8739; in data set [2]; in the data set with S. aureus ATCC 29213; in the data set on P. aeruginosa ATCC 9027) was 10000 µg/mL (≈ 27 mM) in each case.

Turning to `Cc1ccc(C(C)C)cc1OC(=O)CCCC[C@@H]1CCSS1` [codrug 7, LA-CAR], the “hemolytic activity, maximum at the tested concentrations” value in data set [1] is no more than 12%. The MIC in the data set on C. albicans ATCC 10231 was 2500 µg/mL (≈ 7.38 mM); with E. coli ATCC 8739, 5000 µg/mL (≈ 14.8 mM); in data set [2] it was 10000 µg/mL (≈ 29.5 mM); in the data set with S. aureus ATCC 29213, 10000 µg/mL (≈ 29.5 mM); in the data set on P. aeruginosa ATCC 9027 it was 5000 µg/mL (≈ 14.8 mM). For the same molecule, the MFC with C. albicans ATCC 10231 came to 5000 µg/mL (≈ 14.8 mM). For the same molecule, the minimum bactericidal concentration (MBC) (in the data set on E. coli ATCC 8739; in data set [2]; in the data set with S. aureus ATCC 29213; in the data set on P. aeruginosa ATCC 9027) was 10000 µg/mL (≈ 29.5 mM) in each case.

On to `Cc1ccc(C(C)C)cc1OC(=O)[C@@H]1CSC(=O)N1` [codrug 10, OTC-CAR], for which the “hemolytic activity, maximum at the tested concentrations” value in data set [1] is reported as no more than 12%. Further, the MIC stood at 2500 µg/mL (≈ 8.95 mM) in the data set with C. albicans ATCC 10231; 10000 µg/mL (≈ 35.8 mM) in the data set with E. coli ATCC 8739; 10000 µg/mL (≈ 35.8 mM) in data set [2]; 10000 µg/mL (≈ 35.8 mM) with S. aureus ATCC 29213; 10000 µg/mL (≈ 35.8 mM) with P. aeruginosa ATCC 9027. The MFC in the data set with C. albicans ATCC 10231 amounted to 2500 µg/mL (≈ 8.95 mM). Moreover, the minimal bactericidal concentration (MBC) (in the data set with E. coli ATCC 8739; in data set [2]; in the data set on S. aureus ATCC 29213; with P. aeruginosa ATCC 9027) was 10000 µg/mL (≈ 35.8 mM) throughout.
